Laboratory results reported in patent publication US20250197864A1, “LNCRNA TRANSCRIPTS IN MELANOMAGENESIS” (The Regents of the University of California, priority 2021, published 2025).

Tested on: gene expression in D04 melanoma cells
Test: RNA-Seq differential expression analysis (DESeq2)
Format: cell-based, human
Method: Total RNA was isolated using the RNeasy mini Kit (QIAGEN) following the manufacturer's protocol. Quality check for extracted RNA was done using 2100 Bioanalyzer (Agilent Technologies, USA) or Tapestation System (Agilent Technologies, USA). […] For samples used for identification of MAPK-responsive lncRNAs, paired-end, 101-bp sequencing was performed by Centrillion Genomic Services (Centrillion Biosciences, USA) on an Illumina HiSeq 2000. For DE gene analysis of ASO-transfected D04 samples, paired-end, 2×150-bp sequencing was performed by Genewiz (USA) on a Illumina HiSeq.
Sequence reads were aligned to the human genome (hg19) using TopHat (Version 2.0.11).
Differential expression (DE) analysis was done using DESeq2. Differentially expressed genes were defined by more than 1.5-fold changes (log 2 >0.58 or <−0.58) in expression with FDR<0.05. GO term analysis was done using DAVID Functional Annotation Clustering analysis.
To examine the biomolecular changes upon TRASH-inhibition in melanoma, D04 cells were treated with TRASH-ASOs (SEQ ID NO:15) and Control-ASOs and RNA was extracted and used for RNA-Seq. […] These GO terms consisted of genes encoding growth factors, tyrosine kinases, G protein coupled receptor subunits, and collagen subunits. Scatter plot diagram showing differential gene expression after TRASH-ASO treatment compared to Control-ASO treatment. (cut-off for significance was adjusted p-value <0.05). Data was obtained from RNA-Seq of D04 melanoma cells, treatment period was three days. (FIG. 5c)

“GACTGGAGATAATTAA (gapmer, pattern not given here) [SEQ ID NO: 15, GapmeR ASO targeting AC004540.4 (TRASH), exon region of both isoforms; used for in vitro experiments]” showed a log2FoldChange (LINC00689 (ENSG00000231419)) of 1.29, a log2FoldChange (LINC00707 (ENSG00000238266)) of 1.936 and a log2FoldChange (LINC00879 (ENSG00000239589)) of −0.6051. It also gave a log2FoldChange (LINC00957 (ENSG00000235314)) of 1.503, a log2FoldChange (LINC00973 (ENSG00000240476)) of 1.339 and a log2FoldChange (LINC01204 (ENSG00000229563)) of 1.543. For the same sequence, the log2FoldChange (LINC01444 (ENSG00000264301)) was 1.479, the log2FoldChange (LINC01468 (ENSG00000231131)) was 1.433 and the log2FoldChange (LINC01505 (ENSG00000234323)) was −0.6329. The log2FoldChange (LINC01583 (ENSG00000259518)) was 1.348, the log2FoldChange (LINC01638 (ENSG00000233521)) was 1.544 and the log2FoldChange (LINC01770 (ENSG00000225285)) was −0.5999. It also gave a log2FoldChange (LINC02009 (ENSG00000283646)) of 2.6101, a log2FoldChange (LINC02109 (ENSG00000259786)) of −0.684 and a log2FoldChange (LINC02302 (ENSG00000258998)) of 1.424. The log2FoldChange (LINC02506 (ENSG00000251129)) was −0.687, the log2FoldChange (LINC02551 (ENSG00000254842)) was 1.274 and the log2FoldChange (LOXL2 (ENSG00000134013)) was −0.5824. For the same sequence, the log2FoldChange (LOXL3 (ENSG00000115318)) was −0.6239, the log2FoldChange (LPAR1 (ENSG00000198121)) was −0.683 and the log2FoldChange (LRRC2 (ENSG00000163827)) was 1.394. The log2FoldChange (LRRC17 (ENSG00000128606)) was −0.6716, the log2FoldChange (LRRK1 (ENSG00000154237)) was −0.6611 and the log2FoldChange (MACROD2 (ENSG00000172264)) was −0.705. It also gave a log2FoldChange (MAML2 (ENSG00000184384)) of −0.6085, a log2FoldChange (MAP3K3 (ENSG00000198909)) of −0.63 and a log2FoldChange (MAP3K7CL (ENSG00000156265)) of 1.53. It also gave a log2FoldChange (MAP7D2 (ENSG00000184368)) of 1.513, a log2FoldChange (MATN1 (ENSG00000162510)) of 1.294 and a log2FoldChange (MCF2L (ENSG00000126217)) of 3.367. The log2FoldChange (MECR (ENSG00000116353)) was −0.6676, the log2FoldChange (MEGF9 (ENSG00000106780)) was −0.634 and the log2FoldChange (MEIS1 (ENSG00000143995)) was −0.6955. The log2FoldChange (MLLT1 (ENSG00000130382)) was −0.682, the log2FoldChange (MMP3 (ENSG00000149968)) was 1.815 and the log2FoldChange (MPP4 (ENSG00000082126)) was 1.479. The log2FoldChange (MRGPRX4 (ENSG00000179817)) was 1.367, the log2FoldChange (MSANTD2 (ENSG00000120458)) was −0.6954 and the log2FoldChange (MUC4 (ENSG00000145113)) was 2.706. The log2FoldChange (MVB12B (ENSG00000196814)) was −0.6767, the log2FoldChange (MYBPH (ENSG00000133055)) was −0.6322 and the log2FoldChange (MYCT1 (ENSG00000120279)) was 3.863. The log2FoldChange (MYH16 (ENSG00000002079)) was 1.514, the log2FoldChange (MYOCD (ENSG00000141052)) was −0.6639 and the log2FoldChange (NA (ENSG00000170647)) was −0.6428. It also gave a log2FoldChange (NAP1L3 (ENSG00000186310)) of 1.339, a log2FoldChange (NBEA (ENSG00000172915)) of −0.6249 and a log2FoldChange (NBEAP1 (ENSG00000258590)) of 1.338. It also gave a log2FoldChange (NCALD (ENSG00000104490)) of −0.6411, a log2FoldChange (NCAM1 (ENSG00000149294)) of −0.6126 and a log2FoldChange (NCKAP5L (ENSG00000167566)) of −0.6233. The log2FoldChange (NES (ENSG00000132688)) was −0.6119, the log2FoldChange (NLRC3 (ENSG00000167984)) was 1.713 and the log2FoldChange (NLRP1 (ENSG00000091592)) was −0.7071. The log2FoldChange (NLRP3 (ENSG00000162711)) was 2.515, the log2FoldChange (NLRP5 (ENSG00000171487)) was 6.997 and the log2FoldChange (NLRP10 (ENSG00000182261)) was 1.584. The log2FoldChange (NOSTRIN (ENSG00000163072)) was −0.6677, the log2FoldChange (NR2F1 (ENSG00000175745)) was −0.6433 and the log2FoldChange (NR2F1-AS1 (ENSG00000237187)) was −0.5814. The log2FoldChange (OLFML2A (ENSG00000185585)) was −0.6037, the log2FoldChange (ONECUT2 (ENSG00000119547)) was 1.306 and the log2FoldChange (OPRK1 (ENSG00000082556)) was 1.22. It also gave a log2FoldChange (OVAAL (ENSG00000236719)) of 1.572, a log2FoldChange (P2RX6 (ENSG00000099957)) of −0.6686 and a log2FoldChange (P2RX7 (ENSG00000089041)) of −0.5889. For the same sequence, the log2FoldChange (PADI1 (ENSG00000142623)) was 2.566, the log2FoldChange (PADI3 (ENSG00000142619)) was 1.708 and the log2FoldChange (PAPPA (ENSG00000182752)) was −0.6776. It also gave a log2FoldChange (PCDH12 (ENSG00000113555)) of 1.386, a log2FoldChange (PCDHB15 (ENSG00000113248)) of −0.6069 and a log2FoldChange (PDE2A (ENSG00000186642)) of 1.553. The log2FoldChange (PDE8A (ENSG00000073417)) was −0.6263, the log2FoldChange (PEAR1 (ENSG00000187800)) was 1.726 and the log2FoldChange (PGM5P2 (ENSG00000277778)) was 1.447. It also gave a log2FoldChange (PIGR (ENSG00000162896)) of 1.274, a log2FoldChange (PIWIL2 (ENSG00000197181)) of 1.787 and a log2FoldChange (PKHD1L1 (ENSG00000205038)) of 1.46. For the same sequence, the log2FoldChange (PKIA (ENSG00000171033)) was −0.6985, the log2FoldChange (PLA2G7 (ENSG00000146070)) was 1.312 and the log2FoldChange (PLAT (ENSG00000104368)) was −0.6194. It also gave a log2FoldChange (PLCD4 (ENSG00000115556)) of −0.6812, a log2FoldChange (PLCL1 (ENSG00000115896)) of −0.6782 and a log2FoldChange (PLCXD2 (ENSG00000240891)) of 1.882. It also gave a log2FoldChange (PLEKHA2 (ENSG00000169499)) of −0.6601, a log2FoldChange (PLIN4 (ENSG00000167676)) of −0.6819 and a log2FoldChange (POU2F3 (ENSG00000137709)) of 1.244.
